Laboratory results published in patent publication US9695154B2, “Heteroaryl inhibitors of sumo activating enzyme” (MILLENNIUM PHARMACEUTICALS, INC., priority 2013, dated 2017).

Target: T1, recombinant human SAE enzyme (Homo sapiens, UniProt Q9UBT2)
T1 sequence (Q9UBT2 1-640): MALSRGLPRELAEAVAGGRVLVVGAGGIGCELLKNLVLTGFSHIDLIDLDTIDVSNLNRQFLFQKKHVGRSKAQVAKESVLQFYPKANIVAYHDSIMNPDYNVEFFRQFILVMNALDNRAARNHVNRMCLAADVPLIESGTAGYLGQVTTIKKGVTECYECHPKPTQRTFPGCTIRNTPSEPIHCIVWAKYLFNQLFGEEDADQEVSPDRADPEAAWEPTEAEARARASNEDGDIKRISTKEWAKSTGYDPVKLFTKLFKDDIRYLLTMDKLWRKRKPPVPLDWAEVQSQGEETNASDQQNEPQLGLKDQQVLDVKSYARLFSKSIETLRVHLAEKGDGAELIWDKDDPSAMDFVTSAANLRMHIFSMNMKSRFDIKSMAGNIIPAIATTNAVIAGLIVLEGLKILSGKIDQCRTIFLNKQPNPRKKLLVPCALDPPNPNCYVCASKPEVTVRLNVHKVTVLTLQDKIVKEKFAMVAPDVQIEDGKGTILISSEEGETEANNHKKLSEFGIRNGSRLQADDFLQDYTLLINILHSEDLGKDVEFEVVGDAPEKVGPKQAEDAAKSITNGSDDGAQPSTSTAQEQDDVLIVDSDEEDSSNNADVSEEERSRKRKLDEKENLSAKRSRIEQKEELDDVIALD
T1 sequence (Q9UBE0 1-346 partner): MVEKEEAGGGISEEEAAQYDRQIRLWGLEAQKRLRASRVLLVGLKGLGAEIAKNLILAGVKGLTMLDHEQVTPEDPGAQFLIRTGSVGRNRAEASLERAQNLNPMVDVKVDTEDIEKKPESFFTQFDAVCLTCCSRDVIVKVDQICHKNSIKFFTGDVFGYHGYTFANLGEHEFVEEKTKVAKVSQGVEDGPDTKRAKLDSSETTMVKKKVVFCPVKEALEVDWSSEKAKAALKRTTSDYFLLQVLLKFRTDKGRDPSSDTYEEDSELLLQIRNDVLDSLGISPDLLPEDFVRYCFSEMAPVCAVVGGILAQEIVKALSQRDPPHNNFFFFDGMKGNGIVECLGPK
Assay: SAE HTRF Enzyme Assay
Assay type: biochemical
Settings: for IC50: class symbols A-C; for inhibition at 0.111 µM: compound concentration 0.111 μM, read-out: Percent Inhibition
How it was run: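 Reaction with 0.11 nM recombinant human SAE, 0.5 μM ATP, 0.01 μM Ubc9-GST, 0.125 μM Sumo-Flag in HEPES pH 7.5, MgCl2, GSH, BSA, 105 min at 24 °C. Stopped with EDTA/KF buffer carrying Eu-anti-Flag and anti-GST-APC; HTRF read after 2 h; % inhibition or IC50.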

| SMILES | IC50 | inhibition at 0.111 µM |
| --- | --- | --- |
| NS(=O)(=O)OC[C@H]1C[C@@H](Nc2ncncc2C(=O)c2ccn(Cc3ccc(Cl)c(Cl)c3)n2)[C@H](O)[C@@H]1O [Compound I-159, {(1R,2R,3S,4R)-4-[(5-{[1-(3,4-dichlorobenzyl)-1H-pyrazol-3-yl]carbonyl}pyrimidin-4-yl)amino]-2,3-dihydroxycyclopentyl}methyl sulfamate] | < 10 nM | 96% |
| NS(=O)(=O)OC[C@H]1C[C@@H](Nc2ncncc2C(=O)c2ccn(C#Cc3ccccc3)c2)C[C@@H]1O [Compound I-196, {(1R,2S,4R)-2-Hydroxy-4-[(5-{[1-(phenylethynyl)-1H-pyrrol-3-yl]carbonyl}pyrimidin-4-yl)amino]cyclopentyl}methyl sulfamate] | 100 to 1000 nM | 33% |
| NS(=O)(=O)OC[C@H]1C[C@@H](Nc2ncncc2C(=O)c2ccn(Cc3ccc(F)c(C4CC4)c3)n2)C[C@@H]1O [Compound I-301, {(1R,2S,4R)-4-[(5-{[1-(3-cyclopropyl-4-fluorobenzyl)-1H-pyrazol-3-yl]carbonyl}pyrimidin-4-yl)amino]-2-hydroxycyclopentyl}methyl sulfamate] | < 10 nM | 97% |
| NS(=O)(=O)OC[C@H]1C[C@@H](Nc2ncncc2C(=O)c2ccn(Cc3ccc(F)c(Cl)c3)n2)[C@@H](F)[C@@H]1O [Compound I-122, {(1R,2R,3R,4R)-4-[(5-{[1-(3-chloro-4-fluorobenzyl)-1H-pyrazol-3-yl]carbonyl}pyrimidin-4-yl)amino]-3-fluoro-2-hydroxycyclopentyl}methyl sulfamate] | < 10 nM | 99% |
| NS(=O)(=O)OC[C@H]1C[C@@H](Nc2ncncc2C(=O)c2ccn(Cc3cc(I)ccc3Cl)n2)C[C@@H]1O [Compound I-104, {(1R,2S,4R)-4-[(5-{[1-(2-chloro-5-iodobenzyl)-1H-pyrazol-3-yl]carbonyl}pyrimidin-4-yl)amino]-2-hydroxycyclopentyl}methyl sulfamate] | < 10 nM | 100% |
| NS(=O)(=O)OC[C@H]1C[C@@H](Nc2ncncc2C(=O)c2ccn(Cc3ccccc3)n2)[C@H](O)[C@@H]1O [Compound I-142, [(1R,2R,3S,4R)-4-({5-[(1-Benzyl-1H-pyrazol-3-yl)carbonyl]pyrimidin-4-yl}amino)-2,3-dihydroxycyclopentyl]methyl sulfamate] | < 10 nM | 99% |
| NS(=O)(=O)OC[C@H]1C[C@@H](Nc2ncncc2C(=O)c2ccn(Cc3cccc(OC(F)(F)F)c3)n2)[C@H](O)[C@@H]1O [Compound I-349, [(1R,2R,3S,4R)-2,3-dihydroxy-4-{[5-({1-[3-(trifluoromethoxy)benzyl]-1H-pyrazol-3-yl}carbonyl)pyrimidin-4-yl]amino}cyclopentyl]methyl sulfamate] | < 10 nM | 100% |
| NS(=O)(=O)OC[C@H]1C[C@@H](Nc2ncncc2C(=O)c2ccn(Cc3cccc(Cl)n3)n2)C[C@@H]1O [Compound I-95, [(1R,2S,4R)-4-{[5-({1-[(6-chloropyridin-2-yl)methyl]-1H-pyrazol-3-yl}carbonyl)pyrimidin-4-yl]amino}-2-hydroxycyclopentyl]methyl sulfamate] | < 10 nM | 99% |
| NS(=O)(=O)OC[C@H]1C[C@@H](Nc2ncncc2C(=O)c2ccn(Cc3cccc(Cl)c3)n2)[C@H](O)[C@@H]1O [Compound I-40, {(1R,2R,3S,4R)-4-[(5-{[1-(3-Chlorobenzyl)-1H-pyrazol-3-yl]carbonyl}pyrimidin-4-yl)amino]-2,3-dihydroxycyclopentyl}methyl sulfamate] | < 10 nM | 97% |
| NS(=O)(=O)OC[C@H]1C[C@@H](Nc2ncncc2C(=O)c2ccn(Cc3ccc(F)cc3Cl)n2)C[C@@H]1O [Compound I-185, {(1R,2S,4R)-4-[(5-{[1-(2-chloro-4-fluorobenzyl)-1H-pyrazol-3-yl]carbonyl}pyrimidin-4-yl)amino]-2-hydroxycyclopentyl}methyl sulfamate] | < 10 nM | 91% |
| NS(=O)(=O)OC[C@H]1C[C@@H](Nc2ncncc2C(=O)c2cc(Cl)n(Cc3cccc(I)c3)c2)[C@@H](F)[C@@H]1O [Compound I-310, {(1R,2R,3R,4R)-4-[(5-{[5-chloro-1-(3-iodobenzyl)-1H-pyrrol-3-yl]carbonyl}pyrimidin-4-yl)amino]-3-fluoro-2-hydroxycyclopentyl}methyl sulfamate] | < 10 nM | 98% |
| NS(=O)(=O)OC[C@H]1C[C@@H](Nc2ncncc2C(=O)c2ccn(Cc3cccc(-c4ccccc4)c3)n2)[C@H](O)[C@@H]1O [Compound I-278, {(1R,2R,3S,4R)-4-[(5-{[1-(biphenyl-3-ylmethyl)-1H-pyrazol-3-yl]carbonyl}pyrimidin-4-yl)amino]-2,3-dihydroxycyclopentyl}methyl sulfamate] | < 10 nM | 97% |
| NS(=O)(=O)OC[C@H]1C[C@@H](Nc2ncncc2C(=O)c2cc(F)n(Cc3cccc(Br)c3)c2)[C@@H](F)[C@@H]1O [Compound I-44, {(1R,2R,3R,4R)-4-[(5-{[1-(3-Bromobenzyl)-5-fluoro-1H-pyrrol-3-yl]carbonyl}pyrimidin-4-yl)amino]-3-fluoro-2-hydroxycyclopentyl}methyl sulfamate] | < 10 nM | 99% |
| NS(=O)(=O)OC[C@H]1C[C@@H](Nc2ccncc2C(=O)c2ccn(Cc3ccc(F)c(Cl)c3)n2)C[C@@H]1O [Compound I-97, {(1R,2S,4R)-4-[(3-{[1-(3-Chloro-4-fluorobenzyl)-1H-pyrazol-3-yl]carbonyl}pyridin-4-yl)amino]-2-hydroxycyclopentyl}methyl sulfamate] | < 10 nM | 96% |
| NS(=O)(=O)OC[C@H]1C[C@@H](Nc2ncncc2C(=O)c2ccn(Cc3cc(F)c(F)c(F)c3)n2)[C@H](O)[C@@H]1O [Compound I-326, {(1R,2R,3S,4R)-2,3-dihydroxy-4-[(5-{[1-(3,4,5-trifluorobenzyl)-1H-pyrazol-3-yl]carbonyl}pyrimidin-4-yl)amino]cyclopentyl}methyl sulfamate] | < 10 nM | 95% |
| Cc1cc(Cn2ccc(C(=O)c3cncnc3N[C@@H]3C[C@H](COS(N)(=O)=O)[C@@H](O)[C@@H]3F)c2)on1 [Compound I-208, [(1R,2R,3R,4R)-3-fluoro-2-hydroxy-4-{[5-({1-[(3-methylisoxazol-5-yl)methyl]-1H-pyrrol-3-yl}carbonyl)pyrimidin-4-yl]amino)cyolopentyl]methyl sulfomate] | < 10 nM | 95% |
| CC(c1ccc(Cl)o1)n1ccc(C(=O)c2cncnc2N[C@@H]2C[C@H](COS(N)(=O)=O)[C@@H](O)C2)n1 (single isomer, unassigned) [Compound I-354, [(1R,2S,4R)-4-{[5-({1-[(1 S)-1-(5-chloro-2-furyl)ethyl]-1H-pyrazol-3-yl}carbonyl)pyrimidin-4-yl]amino}-2-hydroxycyclopentyl]methyl sulfamate or [(1R,2S,4R)-4-{[5-({1-[(1R)-1-(5-chloro-2-furyl)ethyl]-1H-pyrazol-3-yl}carbonyl)pyrimidin-4-yl]amino}-2-hydroxycyclopentyl]methyl sulfamate] | 10 to 100 nM | 79% |
| NS(=O)(=O)OC[C@H]1C[C@@H](Nc2ncncc2C(=O)c2cc(Cl)n(Cc3ccc(C(F)(F)F)o3)c2)[C@@H](F)[C@@H]1O [Compound I-36, [(1R,2R,3R,4R)-4-({5-[(5-chloro-1-{[5-(trifluoromethyl)-2-furyl]methyl}-1H-pyrrol-3-yl)carbonyl]pyrimidin-4-yl}amino)-3-fluoro-2-hydroxycyclopentyl]methyl sulfamate] | < 10 nM | 99% |
| Cc1cc(Cn2ccc(C(=O)c3cncnc3N[C@@H]3C[C@H](COS(N)(=O)=O)[C@@H](O)C3)n2)ccc1F [Compound I-14, {(1R,2S,4R)-4-[(5-{[1-(4-fluoro-3-methylbenzyl)-1H-pyrazol-3-yl]carbonyl}pyrimidin-4-yl)amino]-2-hydroxycyclopentyl}methyl sulfamate] | < 10 nM | 98% |
| NS(=O)(=O)OC[C@H]1C[C@@H](Nc2ncncc2C(=O)c2ccn(Cc3ccc(C(F)F)o3)c2)[C@@H](F)[C@@H]1O [Compound I-87, [(1R,2R,3R,4R)-4-({5-[(1-{[5-(difluoromethyl)-2-furyl]methyl}-1H-pyrrol-3-yl)carbonyl]pyrimidin-4-yl}amino)-3-fluoro-2-hydroxycyclopentyl]methyl sulfamate] | < 10 nM | > 99% |
